Paper PMC6895180 (Nature Communications, 2019)
Several values for one entry are separate records, joined by “and”; a condition that tells them apart may be missing. Identical values can stand only once. Like-named read-outs stand apart in the source and are kept apart here.

Columns and labels:
T. brucei Squib 427 = assay: microbe, parasite or virus in culture; format: cell-based, Trypanosoma brucei brucei
P2 transporter (TbAT1) = P2 transporter (TbAT1) (Trypanosoma brucei brucei, UniProt Q9Y0I0); assay: cell-based; details: for Ki: P2 transporter Ki
Sequence of P2 transporter (TbAT1) (Q9Y0I0 entry or part of it): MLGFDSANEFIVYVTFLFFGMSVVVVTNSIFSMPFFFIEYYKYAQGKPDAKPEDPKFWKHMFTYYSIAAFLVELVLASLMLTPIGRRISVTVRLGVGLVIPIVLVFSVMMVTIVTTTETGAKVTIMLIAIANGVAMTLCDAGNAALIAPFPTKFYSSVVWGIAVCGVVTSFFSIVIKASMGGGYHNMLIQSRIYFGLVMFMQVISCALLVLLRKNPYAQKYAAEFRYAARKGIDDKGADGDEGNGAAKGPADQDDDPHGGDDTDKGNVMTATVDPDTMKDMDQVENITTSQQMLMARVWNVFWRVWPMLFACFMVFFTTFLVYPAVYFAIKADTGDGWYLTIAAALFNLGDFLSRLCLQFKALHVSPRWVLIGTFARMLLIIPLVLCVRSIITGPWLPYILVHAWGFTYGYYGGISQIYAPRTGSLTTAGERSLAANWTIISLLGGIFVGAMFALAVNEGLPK
Procedure: Non-specific association of radiolabel with the cell pellet was determined using an identical incubation in the presence of saturating (1 mM) unlabelled adenosine.

[1] = system: T. brucei BSF s427 wildtype cells; assay: Growth assays of T. brucei (trypanocidal/trypanostatic effect); format: cell-based, Trypanosoma brucei
Method in brief: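 Cells were seeded at 1×10^5 cells/mL in HMI-9 with 10% FBS and 2 μM 2'-deoxycoformycin, then counted manually at intervals up to 48 h. For wash-out, cultures at 10^5 cells/mL (37 °C/5% CO2) were split at 8 h and 48 h and resuspended with or without compound, with counts every 24 h (detection limit 10^4 cells/mL).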

Structure (SMILES): Nc1ncnc2c1ccn2[C@@H]1O[C@H](CO)C[C@H]1O [Compound 9, 3’-deoxytubercidin]
- EC50 (T. brucei Squib 427; Trypanosoma brucei, Alamar blue cell viability assay, mean and SEM, read-out: T. b. brucei EC50): 48 ± 9 nM
- EC50 (T. brucei Squib 427; Trypanosoma brucei, source data, read-out: T. brucei brucei EC50, Average): 47.7 nM
- EC50 (T. brucei Squib 427; Trypanosoma brucei, source data, read-out: T. brucei brucei EC50, single measurements): 39.9 nM
- SI (MRC/T.b. brucei) (T. brucei Squib 427; selectivity index): >1333
- EC50 (T. brucei Squib 427; source data, read-out: T. brucei brucei EC50, single measurements): 65.2 nM and 38 nM
- P2 Ki, fold lower than the Km value for adenosine (P2 transporter (TbAT1)): roughly 3 fold
- energy advantage at P2 versus adenosine (P2 transporter (TbAT1)): roughly 3 kJ mol^−1
- P2 transporter ΔG^0 (P2 transporter (TbAT1); Gibbs free energy from −RT ln(Ki)): -9.3 kcal/mol
- IC50 (P2 transporter (TbAT1); P2 transporter IC50, single experiments, [L] 0.033 or 0.1 per experiment): 133 nM and 281 nM and 171 nM and 85 nM
- Ki (P2 transporter (TbAT1); AVG, source data): 147 nM
- Ki (P2 transporter (TbAT1); inhibition of [3H]adenosine uptake, mean ± SEM, n = 3): 149 ± 30 nM
- Ki (P2 transporter (TbAT1); single experiments, Cheng–Prusoff from IC50): 111 nM and 236 nM and 160 nM and 80 nM
- P2 transporter δ(ΔG^0) (P2 transporter (TbAT1); in comparison to adenosine): -0.741 kcal/mol
- AVG of cells/mL ([1]; 2xEC50, 2 h, experiment 1): 105000 cells/mL
- Cells/mL ([1]; 2xEC50, 2 h, experiment 1): 117500 Cells/mL and 92500 Cells/mL
- Counts ([1]; 2xEC50, 2 h, experiment 1): 47 and 37
- AVG of cells/mL ([1]; 2xEC50, 2 h, experiment 2): 147500 cells/mL
- Cells/mL ([1]; 2xEC50, 2 h, experiment 2): 140000 Cells/mL and 155000 Cells/mL
- Counts ([1]; 2xEC50, 2 h, experiment 2): 56 and 62
- AVG of cells/mL ([1]; 2xEC50, 4 h, experiment 1): 158750 cells/mL
- Cells/mL ([1]; 2xEC50, 4 h, experiment 1): 160000 Cells/mL and 157500 Cells/mL
- Counts ([1]; 2xEC50, 4 h, experiment 1): 63 and 64
- AVG of cells/mL ([1]; 2xEC50, 4 h, experiment 2): 186250 cells/mL
- Cells/mL ([1]; 2xEC50, 4 h, experiment 2): 177500 Cells/mL and 195000 Cells/mL
- Counts ([1]; 2xEC50, 4 h, experiment 2): 78 and 71
- AVG of cells/mL ([1]; 2xEC50, 6 h, experiment 1): 160000 cells/mL
- Cells/mL ([1]; 2xEC50, 6 h, experiment 1): 170000 Cells/mL and 150000 Cells/mL
- Counts ([1]; 2xEC50, 6 h, experiment 1): 68 and 60
- AVG of cells/mL ([1]; 2xEC50, 6 h, experiment 2): 210000 cells/mL
- Cells/mL ([1]; 2xEC50, 6 h, experiment 2): 192500 Cells/mL and 227500 Cells/mL
- Counts ([1]; 2xEC50, 6 h, experiment 2): 77 and 91
- AVG of cells/mL ([1]; 2xEC50, 8 h, experiment 1): 167500 cells/mL
- Cells/mL ([1]; 2xEC50, 8 h, experiment 1): 162500 Cells/mL and 172500 Cells/mL
- Counts ([1]; 2xEC50, 8 h, experiment 1): 65 and 69
- AVG of cells/mL ([1]; 2xEC50, 8 h, experiment 2): 156250 cells/mL
- Cells/mL ([1]; 2xEC50, 8 h, experiment 2): 162500 Cells/mL and 150000 Cells/mL
- Counts ([1]; 2xEC50, 8 h, experiment 2): 65 and 60
- AVG of cells/mL ([1]; 2xEC50, 12 h, experiment 1): 152500 cells/mL
- Cells/mL ([1]; 2xEC50, 12 h, experiment 1): 165000 Cells/mL and 140000 Cells/mL
- Counts ([1]; 2xEC50, 12 h, experiment 1): 66 and 56
- AVG of cells/mL ([1]; 2xEC50, 12 h, experiment 2): 145000 cells/mL
- Cells/mL ([1]; 2xEC50, 12 h, experiment 2): 145000 Cells/mL
- Counts ([1]; 2xEC50, 12 h, experiment 2): 58
- AVG of cells/mL ([1]; 2xEC50, 24 h, experiment 1): 86250 cells/mL
- Cells/mL ([1]; 2xEC50, 24 h, experiment 1): 77500 Cells/mL and 95000 Cells/mL
- Counts ([1]; 2xEC50, 24 h, experiment 1): 31 and 38
- AVG of cells/mL ([1]; 2xEC50, 24 h, experiment 2): 47500 cells/mL
- Cells/mL ([1]; 2xEC50, 24 h, experiment 2): 37500 Cells/mL and 57500 Cells/mL
- Counts ([1]; 2xEC50, 24 h, experiment 2): 15 and 23
- AVG of cells/mL ([1]; 2xEC50, 36 h, experiment 1): 76250 cells/mL
- Cells/mL ([1]; 2xEC50, 36 h, experiment 1): 87500 Cells/mL and 65000 Cells/mL
- Counts ([1]; 2xEC50, 36 h, experiment 1): 35 and 26
- AVG of cells/mL ([1]; 2xEC50, 36 h, experiment 2): 6250 cells/mL
- Cells/mL ([1]; 2xEC50, 36 h, experiment 2): 7500 Cells/mL and 5000 Cells/mL
- Counts ([1]; 2xEC50, 36 h, experiment 2): 3 and 2
- Cells/mL ([1]; 2xEC50, 48 h, experiment 1): 0 Cells/mL
- Counts ([1]; 2xEC50, 48 h, experiment 1): 0
- AVG of cells/mL ([1]; 2xEC50, 48 h, experiment 2): 2500 cells/mL
- effect on T. brucei bloodstream forms in culture (cidal/static) ([1]; 2× and 5× EC50): trypanocidal
- AVG of cells/mL ([1]; 5xEC50, 2 h, experiment 1): 131250 cells/mL
- Cells/mL ([1]; 5xEC50, 2 h, experiment 1): 135000 Cells/mL and 127500 Cells/mL
- Counts ([1]; 5xEC50, 2 h, experiment 1): 54 and 51
- AVG of cells/mL ([1]; 5xEC50, 2 h, experiment 2): 135000 cells/mL
- Cells/mL ([1]; 5xEC50, 2 h, experiment 2): 127500 Cells/mL and 142500 Cells/mL
- Counts ([1]; 5xEC50, 2 h, experiment 2): 51 and 57
- AVG of cells/mL ([1]; 5xEC50, 4 h, experiment 1): 138750 cells/mL
- Cells/mL ([1]; 5xEC50, 4 h, experiment 1): 117500 Cells/mL and 160000 Cells/mL
- Counts ([1]; 5xEC50, 4 h, experiment 1): 64 and 47
- AVG of cells/mL ([1]; 5xEC50, 4 h, experiment 2): 181250 cells/mL
- Cells/mL ([1]; 5xEC50, 4 h, experiment 2): 177500 Cells/mL and 185000 Cells/mL
- Counts ([1]; 5xEC50, 4 h, experiment 2): 74 and 71
- AVG of cells/mL ([1]; 5xEC50, 6 h, experiment 1): 140000 cells/mL
- Cells/mL ([1]; 5xEC50, 6 h, experiment 1): 127500 Cells/mL and 152500 Cells/mL
- Counts ([1]; 5xEC50, 6 h, experiment 1): 51 and 61
- AVG of cells/mL ([1]; 5xEC50, 6 h, experiment 2): 145000 cells/mL
- Cells/mL ([1]; 5xEC50, 6 h, experiment 2): 135000 Cells/mL and 155000 Cells/mL
- Counts ([1]; 5xEC50, 6 h, experiment 2): 54 and 62
- AVG of cells/mL ([1]; 5xEC50, 8 h, experiment 1): 136250 cells/mL
- Cells/mL ([1]; 5xEC50, 8 h, experiment 1): 115000 Cells/mL and 157500 Cells/mL
- Counts ([1]; 5xEC50, 8 h, experiment 1): 46 and 63
- AVG of cells/mL ([1]; 5xEC50, 8 h, experiment 2): 137500 cells/mL
- Cells/mL ([1]; 5xEC50, 8 h, experiment 2): 135000 Cells/mL and 140000 Cells/mL
- Counts ([1]; 5xEC50, 8 h, experiment 2): 54 and 56
- AVG of cells/mL ([1]; 5xEC50, 12 h, experiment 1): 127500 cells/mL
- Cells/mL ([1]; 5xEC50, 12 h, experiment 1): 135000 Cells/mL and 120000 Cells/mL
- Counts ([1]; 5xEC50, 12 h, experiment 1): 54 and 48
- AVG of cells/mL ([1]; 5xEC50, 12 h, experiment 2): 125000 cells/mL
- Cells/mL ([1]; 5xEC50, 12 h, experiment 2): 125000 Cells/mL
- Counts ([1]; 5xEC50, 12 h, experiment 2): 50
- AVG of cells/mL ([1]; 5xEC50, 24 h, experiment 1): 47500 cells/mL
- Cells/mL ([1]; 5xEC50, 24 h, experiment 1): 45000 Cells/mL and 50000 Cells/mL
- Counts ([1]; 5xEC50, 24 h, experiment 1): 18 and 20
- AVG of cells/mL ([1]; 5xEC50, 24 h, experiment 2): 25000 cells/mL
- Cells/mL ([1]; 5xEC50, 24 h, experiment 2): 27500 Cells/mL and 22500 Cells/mL
- Counts ([1]; 5xEC50, 24 h, experiment 2): 11 and 9
- AVG of cells/mL ([1]; 5xEC50, 36 h, experiment 1): 22500 cells/mL
- Cells/mL ([1]; 5xEC50, 36 h, experiment 1): 25000 Cells/mL and 20000 Cells/mL
- Counts ([1]; 5xEC50, 36 h, experiment 1): 10 and 8
- AVG of cells/mL ([1]; 5xEC50, 36 h, experiment 2): 3750 cells/mL
- Cells/mL ([1]; 5xEC50, 36 h, experiment 2): 5000 Cells/mL and 2500 Cells/mL
- Counts ([1]; 5xEC50, 36 h, experiment 2): 2 and 1
- Cells/mL ([1]; 5xEC50, 48 h, experiment 1): 0 Cells/mL
- Counts ([1]; 5xEC50, 48 h, experiment 1): 0
- AVG of cells/mL ([1]; 5xEC50, 48 h, experiment 2): 0 cells/mL
- Cells/mL ([1]; 5xEC50, 48 h, experiment 2): 0 Cells/mL
- Counts ([1]; 5xEC50, 48 h, experiment 2): 0
